For data set [1], the target named is wild-type human cardiac sodium channel, hNav1.5 (peak INa) (Homo sapiens, UniProt Q14524). In words: Peak INa screening assay (tonic and use-dependent block). In kind it is cell-based. A digest of the protocol:
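Whole-cell automated patch clamp, HEK293 stably expressing hNav1.5 alpha without beta subunits, 23-25° C, holding −100 mV; bath Na⁺ reduced to 20 mM, CsF-based intracellular pH 7.4. Test compound 1 μM; tonic block at 0.1 Hz, use-dependent block at 3 Hz, % peak block after rundown correction.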

A further data set relates to anesthetized rabbits. The experiment in a line: Ischemia-induced ST segment elevation in anesthetized rabbits. Format: in vivo. As to conditions: rabbit; for area under curve (AUC) for the ST segment height reduced (vs. control): 15 min LAD ischemia, iv bolus. The protocol: This study was undertaken to determine the anti-ischemic effects of compounds of the present invention in an in vivo rabbit model.
Female New Zealand rabbits (3.0-4.0 kg) were purchased from Western Oregon Rabbitry. Animals were housed on a 12-h light and dark cycle and received standard laboratory chow and water. All experiments were performed in accordance with the Guide for the Care and Use of Laboratory Animals published by The National Research Council and with the experimental protocol approved by the Institutional Animal Care Committee of Gilead Sciences, Inc.
Rabbits were anesthetized with ketamine (35 mg/kg) and xylazine (5 mg/kg) intramuscular injection (im). A tracheotomy was performed and the trachea was intubated with an endotracheal tube. The animal was ventilated with room air supplemented with oxygen using a pressure control animal ventilator (Kent Scientific Corp., Torrington, Conn.) at a respiratory rate of 40 strokes/min and peak inspiration pressure of 10 mmH2O, which was adjusted to keep blood gases and pH within the physiological range (iSTAT clinic analyzer, Heska Corp.; Waukesha, Wis.). The left femoral artery was cannulated for the measurement of blood pressure (BP). Blood samples were also withdrawn from femoral artery. The right external jugular vein was cannulated for drug/vehicle administration. Needle electrodes were inserted subcutaneously into the limbs for recording of the surface electrocardiogram (ECG). The heart was exposed via an incision in the 4th intercostal space (4th and/or 5th ribs were cut for a clear surgical vision). The chest was opened and a pericardial cradle was formed using 4 retractors. A coronary artery occluder, comprised of a snare made of 5 cm PE-10 tubing with a 6-0 Prolene polypropylene suture in it, was placed loosely around the left anterior descending artery (LAD) at its origin. Two unipolar electrodes, made with teflon coated silver wire attached to a small patch of filter paper, were attached on the surface of the ischemic and normal regions of the left ventricle to record epicardial electrocardiogram. Reference electrodes were placed in the open incision of the neck. The body temperature of the animal was monitored via a rectal thermometer and maintained at 37-40° C. by adjusting the surface temperature of the surgical table. Regional ischemia (15 min) was induced by ligating the LAD followed by 15 min of reperfusion caused by releasing the ligation. The heart was excised at the end of the experiment and the LAD was re-ligated. The ischemic area was visualized by perfusing the heart with 1% Evans blue in saline and calculated as a percentage of total ventricular weight. Rabbits with ischemic area less than 10% or larger than 25% were excluded from the analysis. […]

The mark [2] stands for this setting: % inhibition at 1 μM, tonic block, read-out: NAv1.5*-PEAK-TB-.
The mark [3] stands for this setting: % inhibition at 1 μM, use-dependent block 3 Hz, read-out: NAv1.5*-PEAK-UDB-3 HZ-.
The mark [4] stands for this setting: tonic block of peak INa, 0.1 Hz, 1 μM, read-out: Peak TB 1 μM.
Where [5] appears, read: use-dependent block of peak INa, 3 Hz, 1 μM, read-out: Peak UDB 1 μM.

Like-named read-outs stand apart in the source and are kept apart here.

Sequence of wild-type human cardiac sodium channel, hNav1.5 (peak INa) (Q14524 whole entry): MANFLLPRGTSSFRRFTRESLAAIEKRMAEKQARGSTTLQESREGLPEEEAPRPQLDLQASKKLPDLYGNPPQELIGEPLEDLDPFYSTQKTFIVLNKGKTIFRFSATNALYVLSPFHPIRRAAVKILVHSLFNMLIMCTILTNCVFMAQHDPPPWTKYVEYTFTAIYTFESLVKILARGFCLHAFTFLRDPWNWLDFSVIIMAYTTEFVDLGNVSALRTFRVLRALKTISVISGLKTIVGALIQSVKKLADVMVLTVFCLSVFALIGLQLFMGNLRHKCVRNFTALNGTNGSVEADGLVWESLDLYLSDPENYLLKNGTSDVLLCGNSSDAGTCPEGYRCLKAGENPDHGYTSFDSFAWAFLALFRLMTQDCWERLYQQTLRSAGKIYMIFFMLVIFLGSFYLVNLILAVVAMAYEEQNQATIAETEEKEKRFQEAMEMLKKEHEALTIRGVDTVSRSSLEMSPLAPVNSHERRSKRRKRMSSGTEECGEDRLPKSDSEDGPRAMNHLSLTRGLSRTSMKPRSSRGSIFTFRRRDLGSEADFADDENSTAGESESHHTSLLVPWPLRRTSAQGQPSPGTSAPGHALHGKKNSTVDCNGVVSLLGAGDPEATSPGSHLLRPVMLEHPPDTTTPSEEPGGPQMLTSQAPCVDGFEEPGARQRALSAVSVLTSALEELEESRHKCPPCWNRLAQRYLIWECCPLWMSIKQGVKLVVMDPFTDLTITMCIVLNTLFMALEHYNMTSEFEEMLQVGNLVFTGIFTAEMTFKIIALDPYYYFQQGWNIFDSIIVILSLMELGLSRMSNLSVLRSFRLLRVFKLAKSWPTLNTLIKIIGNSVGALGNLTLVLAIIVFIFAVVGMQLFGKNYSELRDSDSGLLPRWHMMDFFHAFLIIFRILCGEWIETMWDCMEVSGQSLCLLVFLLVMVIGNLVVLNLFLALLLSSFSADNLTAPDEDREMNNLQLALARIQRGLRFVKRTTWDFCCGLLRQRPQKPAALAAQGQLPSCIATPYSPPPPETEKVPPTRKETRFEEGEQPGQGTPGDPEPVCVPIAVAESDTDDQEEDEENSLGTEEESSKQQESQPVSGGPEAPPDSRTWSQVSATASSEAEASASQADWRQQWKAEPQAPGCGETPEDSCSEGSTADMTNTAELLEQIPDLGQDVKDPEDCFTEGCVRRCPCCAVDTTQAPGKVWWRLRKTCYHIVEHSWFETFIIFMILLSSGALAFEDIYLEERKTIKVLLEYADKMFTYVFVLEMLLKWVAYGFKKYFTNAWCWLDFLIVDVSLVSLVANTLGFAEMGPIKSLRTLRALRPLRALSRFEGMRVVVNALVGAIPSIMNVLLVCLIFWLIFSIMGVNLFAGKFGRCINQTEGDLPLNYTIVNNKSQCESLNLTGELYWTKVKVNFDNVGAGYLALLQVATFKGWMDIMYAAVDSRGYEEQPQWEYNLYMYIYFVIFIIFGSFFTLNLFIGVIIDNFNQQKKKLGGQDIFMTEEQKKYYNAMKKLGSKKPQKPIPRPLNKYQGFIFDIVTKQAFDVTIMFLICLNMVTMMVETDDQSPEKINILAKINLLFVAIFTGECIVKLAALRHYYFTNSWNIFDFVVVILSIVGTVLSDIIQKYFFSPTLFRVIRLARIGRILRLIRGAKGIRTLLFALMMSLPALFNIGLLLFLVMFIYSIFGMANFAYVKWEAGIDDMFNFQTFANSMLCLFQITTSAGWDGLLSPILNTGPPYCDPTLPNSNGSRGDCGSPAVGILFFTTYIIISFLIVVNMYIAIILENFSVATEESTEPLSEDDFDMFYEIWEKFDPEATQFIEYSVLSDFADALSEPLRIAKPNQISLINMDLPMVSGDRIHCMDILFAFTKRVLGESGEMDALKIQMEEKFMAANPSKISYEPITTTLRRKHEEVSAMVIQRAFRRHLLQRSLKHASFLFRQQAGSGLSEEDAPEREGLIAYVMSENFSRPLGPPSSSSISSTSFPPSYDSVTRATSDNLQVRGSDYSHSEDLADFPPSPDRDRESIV

As to `Cc1noc(Cn2nnc3ccc(-c4ccc(OC(F)(F)F)cc4)cc3c2=O)n1` [II-3, 3-((3-methyl-1,2,4-oxadiazol-5-yl)methyl)-6-(4-(trifluoromethoxy)phenyl)benzo[d][1,2,3]triazin-4(3H)-one], the inhibition at 1 µM in data set [1] (setting [2]) amounted to 19%; in data set [1] (setting [3]), 10%; in data set [1] (setting [4]), 19%; in data set [1] (setting [5]) it was 10%.
For `O=c1c2cc(-c3ccc(OC(F)(F)F)cc3)ccc2nnn1Cc1noc(C2CC2)n1` [II-14, 3-((5-cyclopropyl-1,2,4-oxadiazol-3-yl)methyl)-6-(4-(trifluoromethoxy)phenyl)benzo[d][1,2,3]triazin-4(3H)-one], the inhibition at 1 µM in data set [1] (setting [2]) is 7%; in data set [1] (setting [3]) it was 1%; in data set [1] (setting [4]) it was 7%; in data set [1] (setting [5]) it was 1%. The “area under curve (AUC) for the ST segment height reduced (vs. control)” value in the data set on anesthetized rabbits (0.3 μM plasma concentration) was found to be 19%; with anesthetized rabbits (0.7 μM plasma concentration) it was 75%. The “effect on blood pressure (BP), heart rate (HR) and ECG intervals prior to the ischemia” value with anesthetized rabbits (at the plasma concentration levels studied) is “no significant effect”. Besides, the “ischemia-induced ST elevation” value in the data set on anesthetized rabbits (iv bolus 0.1, 0.2 and 0.4 mg/kg) was “dose-dependently prevented the ischemia-induced ST elevation”.
As to `O=c1c2cc(-c3ccc(OC(F)(F)F)cc3)ccc2nnn1CCc1ccncn1` [II-17, 3-(2-(pyrimidin-4-yl)ethyl)-6-(4-(trifluoromethoxy)phenyl)benzo[d][1,2,3]triazin-4(3H)-one], the inhibition at 1 µM in data set [1] (setting [2]) came out at 11%; in data set [1] (setting [3]), 7%; in data set [1] (setting [4]), 11%; in data set [1] (setting [5]), 7%.
With `O=c1c2cc(-c3ccc(OC(F)(F)F)cc3)ccc2nnn1CCc1ncccn1` [II-18, 3-(2-(pyrimidin-2-yl)ethyl)-6-(4-(trifluoromethoxy)phenyl)benzo[d][1,2,3]triazin-4(3H)-one], the inhibition at 1 µM turned out to be 15% in data set [1] (setting [2]), 13% in data set [1] (setting [3]), 15% in data set [1] (setting [4]) and 13% in data set [1] (setting [5]).
Consider `O=c1c2cc(-c3ccc(OC(F)(F)F)cc3)ccc2nnn1CCOc1ncccn1` [II-32, 3-(2-(pyrimidin-2-yloxy)ethyl)-6-(4-(trifluoromethoxy)phenyl)benzo[d][1,2,3]triazin-4(3H)-one], for which the inhibition at 1 µM in data set [1] (setting [2]) is 16%; in data set [1] (setting [3]), 21%; in data set [1] (setting [4]), 16%; in data set [1] (setting [5]) it was 21%.
With `N#Cc1ccnc(OCCn2nnc3ccc(-c4ccc(OC(F)(F)F)cc4)cc3c2=O)n1` [II-36, 2-(2-(4-oxo-6-(4-(trifluoromethoxy)phenyl)benzo[d][1,2,3]triazin-3(4H)-yl)ethoxy)pyrimidine-4-carbonitrile], the inhibition at 1 µM worked out at 7% in data set [1] (setting [2]), 8% in data set [1] (setting [3]), 7% in data set [1] (setting [4]) and 8% in data set [1] (setting [5]).
With `O=c1c2cc(-c3ccc(OC(F)(F)F)cc3)ccc2nnn1CC1(CN2CCOCC2)CC1` [II-40, 3-((1-(morpholinomethyl)cyclopropyl)methyl)-6-(4-(trifluoromethoxy)phenyl)benzo[d][1,2,3]triazin-4(3H)-one], the inhibition at 1 µM in data set [1] (setting [2]) was 15%; in data set [1] (setting [3]), 29%; in data set [1] (setting [4]) it was 15%; in data set [1] (setting [5]), 29%.
Consider `O=c1c2cc(-c3ccc(OC(F)(F)F)cc3)ccc2nnn1Cc1noc(-c2ccccn2)n1` [II-54, 3-((5-(pyridin-2-yl)-1,2,4-oxadiazol-3-yl)methyl)-6-(4-(trifluoromethoxy)phenyl)benzo[d][1,2,3]triazin-4(3H)-one], for which the inhibition at 1 µM amounted to 5% in data set [1] (setting [2]), 8% in data set [1] (setting [3]), 5% in data set [1] (setting [4]) and 8% in data set [1] (setting [5]).
In the case of `O=c1c2cc(-c3ccc(OC(F)(F)F)cc3)ccc2nnn1Cc1nnc(C2CC2)o1` [II-67, 3-((5-cyclopropyl-1,3,4-oxadiazol-2-yl)methyl)-6-(4-(trifluoromethoxy)phenyl)benzo[d][1,2,3]triazin-4(3H)-one], the inhibition at 1 µM is 12% in data set [1] (setting [2]), 7% in data set [1] (setting [3]), 12% in data set [1] (setting [4]) and 7% in data set [1] (setting [5]).
On to `O=c1c2cc(-c3ccc(OC(F)(F)F)cc3)ccc2cnn1CCn1cccn1` [III-9, 2-(2-(1H-pyrazol-1-yl)ethyl)-7-(4-(trifluoromethoxy)phenyl)phthalazin-1(2H)-one], for which the inhibition at 1 µM in data set [1] (setting [2]), in data set [1] (setting [3]), in data set [1] (setting [4]) and in data set [1] (setting [5]) was 15% throughout.
Take `COc1cc(OC)nc(Cn2ncc3ccc(-c4ccc(OC(F)(F)F)cc4)cc3c2=O)n1` [III-19, 2-((4,6-dimethoxypyrimidin-2-yl)methyl)-7-(4-(trifluoromethoxy)phenyl)phthalazin-1 (2H)-one]: the inhibition at 1 µM in data set [1] (setting [2]) was determined as 14%; in data set [1] (setting [3]), 19%; in data set [1] (setting [4]), 14%; in data set [1] (setting [5]), 19%.
Consider `Cc1noc(Cn2cnc3ccc(-c4ccc(OC(F)(F)F)cc4)cc3c2=O)n1` [IV-6, 3-((3-methyl-1,2,4-oxadiazol-5-yl)methyl)-6-(4-(trifluoromethoxy)phenyl)quinazolin-4(3H)-one], for which the inhibition at 1 µM in data set [1] (setting [2]) was determined as 12%; in data set [1] (setting [3]) it was 7%; in data set [1] (setting [4]) it was 12%; in data set [1] (setting [5]), 7%.
On to `O=C(c1ncccn1)N1CCc2ccc(-c3ccc(C(F)(F)F)cc3)cc2C1` [IX-7, pyrimidin-2-yl(7-(4-(trifluoromethyl)phenyl)-3,4-dihydroisoquinolin-2(1H)-yl)methanone], for which the inhibition at 1 µM amounted to 12% in data set [1] (setting [2]), 17% in data set [1] (setting [3]), 12% in data set [1] (setting [4]) and 17% in data set [1] (setting [5]).
Regarding `O=C1c2cc(-c3ccc(C(F)(F)F)cc3)ccc2OCN1Cc1ccccn1` [VIII-1, 3-(pyridin-2-ylmethyl)-6-(4-(trifluoromethyl)phenyl)-2H-benzo[e][1,3]oxazin-4(3H)-one], the inhibition at 1 µM in data set [1] (setting [2]) stood at 35%; in data set [1] (setting [3]) it was 26%; in data set [1] (setting [4]) it was 35%; in data set [1] (setting [5]) it was 26%.
As to `O=C1c2cc(-c3ccc(OC(F)(F)F)cc3)ccc2OCN1Cc1ccccn1` [VIII-3, 3-(pyridin-2-ylmethyl)-6-(4-(trifluoromethoxy)phenyl)-2H-benzo[e][1,3]oxazin-4(3H)-one], the inhibition at 1 µM in data set [1] (setting [2]) came out at 21%; in data set [1] (setting [3]) it was 12%; in data set [1] (setting [4]), 21%; in data set [1] (setting [5]), 12%.
Regarding `O=C1c2cc(-c3ccc(OC(F)(F)F)cc3)ccc2OCN1Cc1ncccn1` [VIII-20, 3-(pyrimidin-2-ylmethyl)-6-(4-(trifluoromethoxy)phenyl)-2H-benzo[e][1,3]oxazin-4(3H)-one], the inhibition at 1 µM in data set [1] (setting [2]) was found to be 27%; in data set [1] (setting [3]), 23%.

The values above are taken from patent US20150329558A1, “FUSED HETEROCYCLIC COMPOUNDS AS ION CHANNEL MODULATORS” (Gilead Sciences, Inc., priority 2011, published 2015).
